Patent EP4674418A1, “SOLUTION, FREEZE-DRIED FORMULATION, FREEZE-DRIED F[…] PACKAGE, INJECTION, AND INJECTION PREPARATION METHOD” (Ascentawits Pharmaceuticals, Ltd., priority 2023, dated 2024)
Values after ≈ are worked out from the molar mass of the structure shown. Where two headings read alike, the source gives them in different places.

How the values were obtained:
[1] = Freeze-thaw cycle stability of freeze-dried formulations; format: physicochemical; settings: TH-302 active pharmaceutical ingredient used for the two batches
Description: The freeze-thaw test was to place the sample in the dark at (-20°C±5°C) for 2 days, and at (25°C±5°C) for another 2 days, as a cycle. The HPLC purity of TH-302 in the freeze-dried samples was determined. Table 32: HPLC purity test data of TH-302 active pharmaceutical ingredient, two batches of prepared freeze-dried formulations, and the freeze-dried formulations after three freeze-thaw cycles (%)

[2] = Saturated solubility of the drug in D5W solution under strong shaking; format: physicochemical; settings: 5% glucose solution (D5W), saline or isotonic, thermodynamic from solid, shaken 2 minutes, filtered, room temperature 24 hours
Description: The TH-302 sample was weighed accurately in an amount of about 60 mg, placed in a transparent vial, and added with 6 mL of 5% glucose solution (D5W). The resulting solution was shaken vigorously for 2 minutes to obtain a solubility- stock solution. It was observed that the solubility-stock solution contained insoluble substances. Thus, the solubility- stock solution was filtered and then became clear. […] This value was exactly the saturated solubility of the drug in D5W solution.

[3] = concentrated injection with ethanol, dimethlyacetamide, polysorbate 80; mainly induced by dimethlyacetamide; WO2015013448A1; cited from earlier work
[4] = Solubility experiment of TH-302 (saturated solution method, HPLC); format: physicochemical; settings: thermodynamic from solid
Description: The solubility is measured in an experiment by the saturated solution method; that is, the solid TH-302 was directly charged into the solvent until insoluble matter or turbidity appears. After clarification for a period of time, the solution was directly filtered. The clarified filtrate was taken directly for determination of the concentration of TH-302. The resulting concentration is exactly the solubility of TH-302 in this solvent system. Please refer to Tables 1, 2, and 3 for specific solubility data.
For the method for measuring the concentration of TH-302 (mg/ml), please refer to the HPLC method described in the patent WO2008083101A1 owned by Threshold Pharmaceuticals Inc. (see Example 2. An Ethanol Formulation of TH302, for details); and the external standard method was used for quantification.

Cn1c(COP(=O)(NCCBr)NCCBr)cnc1[N+](=O)[O-] [TH-302]
HPLC purity [1]: 95.87%
solubility at 2 min [2]: 7250 µg/mL (≈ 16.1 mM)
TH-302 administration reactions [3]: lip swelling and urticaria
solubility ([4]; 1% N,N-dimethylacetamide aqueous solution (volume), water, 1%N,N-dimethlyacetamide aqueous solution (volume), read-out: Solubility): 8050 µg/mL (≈ 17.9 mM)
solubility ([4]; 1% ethanol aqueous solution (volume), water, read-out: Solubility): 6580 µg/mL (≈ 14.7 mM)
solubility ([4]; 1% polyethylene glycol aqueous solution (volume), water, read-out: Solubility): 6810 µg/mL (≈ 15.2 mM)
solubility ([4]; 20% ethanol aqueous solution (volume), aqueous with cosolvent or surfactant or cyclodextrin, read-out: Solubility): 8400 µg/mL (≈ 18.7 mM)
solubility ([4]; aqueous with cosolvent or surfactant or cyclodextrin, 1%Tween 80 aqueous solution (volume), read-out: Solubility): 7210 µg/mL (≈ 16.1 mM)
solubility ([4]; aqueous with cosolvent or surfactant or cyclodextrin, 20% tert-butanol aqueous solution, volume ratio, commercial TH-302, read-out: Solubility): 10000 µg/mL
solubility ([4]; aqueous with cosolvent or surfactant or cyclodextrin, 30% tert-butanol in water, mass ratio, TH-302 synthesized by the applicants, read-out: Solubility): 42000 µg/mL
solubility ([4]; aqueous with cosolvent or surfactant or cyclodextrin, 40% tert-butanol aqueous solution, volume ratio, commercial TH-302, read-out: Solubility): > 40000 µg/mL
solubility ([4]; organic solvent or mixture, 60% tert-butanol in water, mass ratio, TH-302 synthesized by the applicants, read-out: Solubility): 146000 µg/mL
solubility ([4]; organic solvent or mixture, 70% tert-butanol in water, mass ratio, TH-302 synthesized by the applicants, read-out: Solubility): 165000 µg/mL
solubility ([4]; organic solvent or mixture, 75% tert-butanol in water, mass ratio, TH-302 synthesized by the applicants, read-out: Solubility): 151000 µg/mL
solubility ([4]; organic solvent or mixture, 80% tert-butanol aqueous solution, volume ratio, commercial TH-302, read-out: Solubility): 88500 µg/mL
solubility ([4]; organic solvent or mixture, 80% tert-butanol in water, mass ratio, TH-302 synthesized by the applicants, read-out: Solubility): 143000 µg/mL
solubility ([4]; organic solvent or mixture, 90% tert-butanol aqueous solution, volume ratio, commercial TH-302, read-out: Solubility): 76400 µg/mL
solubility ([4]; organic solvent or mixture, 90% tert-butanol in water, mass ratio, TH-302 synthesized by the applicants, read-out: Solubility): 66600 µg/mL
solubility ([4]; organic solvent or mixture, 90% tert-butanol/10% ethanol, volume ratio, commercial TH-302, read-out: Solubility): 10700 µg/mL
solubility ([4]; organic solvent or mixture, 95% tert-butanol aqueous solution, volume ratio, commercial TH-302, read-out: Solubility): 32300 µg/mL
solubility ([4]; organic solvent or mixture, 95% tert-butanol in water, mass ratio, TH-302 synthesized by the applicants, read-out: Solubility): 36800 µg/mL
solubility ([4]; organic solvent or mixture, 95% tert-butanol/5% ethanol, volume ratio, commercial TH-302, read-out: Solubility): 9980 µg/mL
solubility ([4]; organic solvent or mixture, 100% tert-butanol, TH-302 synthesized by the applicants, read-out: Solubility): 11800 µg/mL (≈ 26.2 mM)
solubility ([4]; organic solvent or mixture, tert-butanol, commercial TH-302, read-out: Solubility): 8980 µg/mL (≈ 20 mM)
solubility ([4]; pH 2, simulated gastric fluid, pH2, HCl solution, read-out: Solubility): 6940 µg/mL (≈ 15.5 mM)
solubility ([4]; pH 4, aqueous buffer, pH4, phthalate buffer solution, read-out: Solubility): 7220 µg/mL (≈ 16.1 mM)
solubility ([4]; pH 6, aqueous buffer, pH6, phosphate buffer solution, read-out: Solubility): 5810 µg/mL (≈ 12.9 mM)
solubility ([4]; pH 7, aqueous buffer, pH7, phosphate buffer solution, read-out: Solubility): 5870 µg/mL (≈ 13.1 mM)
solubility ([4]; pH 8, aqueous buffer, pH8, phosphate buffer solution, read-out: Solubility): 5940 µg/mL (≈ 13.2 mM)
solubility ([4]; pH 10, aqueous buffer, pH10, borate buffer solution, read-out: Solubility): 6070 µg/mL (≈ 13.5 mM)
solubility ([4]; tert-butanol-water mixed solvent, aqueous with cosolvent or surfactant or cyclodextrin, summary statement, maximum reached, read-out: solubility in the tert-butanol-water mixed solvent system): ≥ 160000 µg/mL
